The source of these data is patent publication US20080027023A1, “Antiproliferative Compositions Comprising Aryl Substituted Xylopyranoside Derivatives” (priority 2004, published 2008).

The subject of data set [1] is rat C6 glioma cells. Description: Cellular growth assay (crystal violet, A600), rat C6 glioma cells. Format: cell-based. The settings on record: for effect on cell growth: FIG. 4; for growth-inhibitory effect compared to untreated cells (control): FIG. 1A; for inhibits growth: FIG. 1B. The text has this: (§1) Cells were obtained from American type culture collection (ATCC, Rockville, Md.). Regular cell culture media, L-glutamine, penicillin-streptomycin, trypsin, and donor calf serum were obtained from Life Technologies. Dulbeccos Modified Earles Medium, medium 199 and Ham's F-12 medium were purchased from Sigma, difluoromethylornithine (DFMO) was from ILEX Oncology, San Antonio, Tex. Epidermal growth factor was purchased from Genzyme, Cambridge, Mass. and crystal violet from Merck, Germany.
(§2) Cells were cultured as monolayers in Dulbeccos Modified Earles Medium (DMEM) supplemented with 10% (v/v) fetal bovine serum, 2 mM L-glutamine, penicillin (100 U/mL) and streptomycin (100 μg/mL) in an incubator with humidified atmosphere and 5% CO2 at 37° C.
(§3) The growth assay procedure has been described elsewhere (Mani et al., 1998, Cancer Res. 58: 1099-1104). Cells were seeded into 96-well microculture plates at 3000 cells/well in DMEM supplemented with insulin (10 ng/mL), transferrin (25 ng/mL) and 10% fetal calf serum. After 4 h of plating the cells were placed in serum-free Ham's F-12 medium supplemented with insulin (10 ng/mL) and transferrin (25 ng/mL) for an additional 24 h. […] In some experiments cells were pre-treated with DFMO to up-regulate spermine uptake (Belting et al., 2003, J. Biol. Chem. 278: 47181-47189). Controls without growth factor as well as solvent (DMSO) controls were included. The total time of exposure to the various agents was 5 days. Cells were fixed in 1% glutaraldehyde dissolved in Hanks balanced salt solution (NaCl 80 g/L, KCl 4 g/l, glucose 10 g/L, KH2PO4 600 mg/L, NaHPO4 475 mg/L) for 15 min, then cell nuclei were stained with 0.1% crystal violet. After washing and cell lysis for 24 h in Triton X-100, the amount of bound dye was measured at A600 in a microplate photometer (Titertek multiscan). The results are presented as the difference between A600 obtained after 5 days and that obtained immediately after seeding of the cells (t=0).

Data set [2] deals with cells. Kind of data set: Uptake of xyloside when added to cells. Format: cell-based. The source says: Referring to FIG. 4, the results of treating rat C6 glioma cells with peracetylated Gal-4-Xyl-2-Nap-6-OH are shown. […] The reason for this difference is that peracetylated Gal-4-Xyl-2-Nap-6-OH is deacetylated by non-specific esterases after uptake into cells, whereby the resulting non-acetylated Gal-4-Xyl-2-Nap-6-OH remains trapped inside the cell resulting in a much higher local concentration. Accordingly, non-acetylated Gal-4-Xyl-2-Nap-6-OH is not taken up when added to cells.

In data set [3] the test system is rat C6 glioma cells implanted subcutaneously. Description: Subcutaneous C6 glioma tumors in SCID mice. It is filed as in vivo. The protocol: (§4) Treatment with xyloside was daily contralateral subcutaneous injections (1.7 mM solution; 0.5 ml for mice, 5 ml for rats) for 2 weeks. DFMO (0.1% w/v) was administered via the drinking water.
(§5) Female SCIDnodCA mice (7-8 weeks old) or Fisher rats (12 week old) were kept under pathogen-free conditions in the animal barrier facility at the Biomedical Center, Lund University, according to the Swedish guidelines for humane treatment of laboratory animals. The experimental set-up was approved by the ethical committee for animal research in Malmö/Lund, Sweden. To generate tumors, rat C6 glioma cells or human bladder T24 carcinoma cells (1×10^6 cells in 200 μl PBS) were injected subcutaneously in the dorsal region of 7-8 week old mice (n=4-8) or intracerebrally in rats.
(§6) In the present studies, animals (n=8) received 1.7 mM Xyl-2-Nap-6-OH, i.e. a saturated solution, either ad libitum via the drinking water, or by daily injections either subcutaneously (0.5 ml for mice, 5 ml for rats) or intraperitoneally (0.5 ml) for a total period of up to 2 weeks. Controls received drinking water with no additives or daily injections with sterile water. Food and water intake and changes in body weight were monitored. The xyloside was administered either concurrent with or 3 weeks post-injection. In the latter case, the animals were randomly divided into control and treatment groups with no significant differences in tumor volume. The animals were sacrificed following 2-3 weeks of treatment, and tumor mass or volume was recorded.

The conditions of data set [4]: after uptake by DFMO-treated cells; cited from earlier work.
The test system of data set [5] is human bladder carcinoma T24 cells. Kind of data set: Cellular growth assay, human bladder carcinoma T24 cells. Format: cell-based. The settings on record: for cytotoxic effect on T24 cells: 0.5 mM xyloside, FIG. 5A / FIG. 2.
From the text: as §1, §2, §3

In data set [6] the test system is normal human lung fibroblasts. Description: Cellular growth assay, normal human lung fibroblasts. It is filed as cell-based.
From the text: as §1, §2
The growth assay procedure has been described elsewhere (Mani et al., 1998, Cancer Res. 58: 1099-1104). Cells were seeded into 96-well microculture plates at 3000 cells/well in DMEM supplemented with insulin (10 ng/mL), transferrin (25 ng/mL) and 10% fetal calf serum. After 4 h of plating the cells were placed in serum-free Ham's F-12 medium supplemented with insulin (10 ng/mL) and transferrin (25 ng/mL) for an additional 24 h. […] After washing and cell lysis for 24 h in Triton X-100, the amount of bound dye was measured at A600 in a microplate photometer (Titertek multiscan). […]

A short description of data set [7]: Saturated solution used for dosing. It is filed as physicochemical. The note with it: drinking water / injection solution. The protocol: as §6
Data set [8] deals with tumor cells located subcutaneously or orthotopically. Kind of data set: Other animal experiments, tumor-bearing mice, various routes of administration. Format: in vivo. The protocol:
as §5, §6
Treatment with Xyl-2-Nap-6-OH reduce the average tumor load by 70-97% in mice receiving the compound concomitant with tumor cell inoculation as well as in mice with pre-formed tumors. […] Side-effects via inhibition of proteoglycan synthesis in cartilage and connective tissues is unlikely, as xyloside concentrations greater than 2 mM are required for their inhibition in vitro (Moses et al., 1999, Eur, J. Biochem. 26: 879-884).

The subject of data set [9] is A549 cells. The settings on record: Mani et al. Glycobiology 14: 387-397; cited from earlier work.
The subject of data set [10] is SV40 virus infected fibroblasts. Kind of data set: Growth inhibition of SV40 virus infected fibroblasts. Format: cell-based. The note with it: combination with DFMO and spermine-NONOate.
The subject of data set [11] is HepG2 hepatoma cells. The note with it: Mani et al. Glycobiology 14: 387-397; cited from earlier work.
The subject of data set [12] is HepG2 hepatoma cells. Description: Growth inhibition of HepG2 hepatoma cells. Format: cell-based. The note with it: combination with DFMO and spermine-NONOate.
Data set [13] relates to rat C6 glioma cells implanted intracerebrally. Kind of data set: Intracerebral C6 glioma tumors in rats. Format: in vivo. The protocol:
as §4, §5
as §6, with “In the latter case, the animals were randomly divided into control and treatment groups with no significant differences in tumor volume.” left out

The test system of data set [14] is SV40 virus infected fibroblasts. The note with it: Mani et al. Glycobiology 14: 387-397; cited from earlier work.
Data set [15] relates to A549 cells. Kind of data set: Growth inhibition of A549 cells. It is filed as cell-based. The note with it: combination with DFMO and spermine-NONOate.

Take `CC(=O)OC[C@H]1O[C@@H](O[C@@H]2CO[C@@H](Oc3ccc4cc(OC(C)=O)ccc4c3)[C@H](OC(C)=O)[C@H]2OC(C)=O)[C@H](OC(C)=O)[C@@H](OC(C)=O)[C@H]1OC(C)=O` [peracetylated Gal-4-Xyl-2-Nap-6-OH]: the “effect on cell growth” value in data set [1] (0.2 mM xyloside alone) is listed as “complete growth-arrest”; in [1] (xyloside in combination with 5 mM DFMO and 5 μM spermineNONOate), “significant cytotoxic effect”. For the same compound, in [1] (comparison of FIG. 4 with FIG. 1B), the “potency relative to Xyl-2-Nap-6-OH at the same concentrations” value is reported as “at least 5 fold”.

Turning to `OC[C@H]1O[C@@H](O[C@@H]2CO[C@@H](Oc3ccc4cc(O)ccc4c3)[C@H](O)[C@H]2O)[C@H](O)[C@@H](O)[C@H]1O` [Gal-4-Xyl-2-Nap-6-OH, 2-(6-hydroxynaphthyl)-4-O-(β-D-galactopyranosyl)-β-D-xylopyranoside], the “uptake when added to cells” value in data set [2] is “not taken up”.

In the case of `NCCC[C@](N)(C(=O)O)C(F)F` [DFMO, α-difluoromethylornithine, reference compound], the “growth-inhibitory effect compared to untreated cells (control)” value in data set [1] (5 mM DFMO alone) is “no significant growth-inhibitory effect”. In addition, in data set [3] (relative to 0.1% w/v DFMO given with Xyl-2-Nap-6-OH (83% reduction)), the “higher concentration of DFMO in the drinking water required for the same effect with DFMO alone” value was 10-20 fold.

For `NCCCNCCCCN(CCCN)/[N+]([O-])=N/O` [spermineNONOate, reference compound], in data set [1] (5 μM spermineNONOate alone), the “growth-inhibitory effect compared to untreated cells (control)” value is on record as “no significant growth-inhibitory effect”. In data set [4], the “half-life of intracellular NO release” value is recorded as 4 h.

As to `CC(=O)Oc1ccc2cc(O[C@@H]3OC[C@@H](OC(C)=O)[C@H](OC(C)=O)[C@H]3OC(C)=O)ccc2c1` [peracetylated Xyl-2-Nap-6-OH], the “cytotoxic effect on T24 cells” value in data set [5] was “clear cytotoxic effect”. In [6] (0.5 mM xyloside, FIG. 5B), the “effect on growth of normal human fibroblasts” value is on record as “does not affect growth”.

As to `Oc1ccc2cc(OC3OCC(O)C(O)C3O)ccc2c1` (centres unmarked) [Xyl-2-Nap-6-OH], the “concentration of saturated solution” value in data set [7] turned out to be 1700 µM. Further, in [8] (mice, compound given concomitant with tumor cell inoculation or to pre-formed tumors), the “reduction of average tumor load” value is on record as 70-97%. Further, in [8] (mouse, in vivo), the “toxic side-effects in vivo” value is “lack of obvious toxic side-effects”. The “absorption and availability to tumor cells” value in data set [8] (various ways of administration including oral) was “adsorbed and made available to tumor cells”. Moreover, the inhibits growth in data set [1] (0.5 mM xyloside alone) stood at 65%; in [1] (0.5 mM xyloside combined with 5 mM DFMO and 5 μM spermineNONOate), 93%. The growth inhibition entry in [9], in data set [11] and in data set [14] was “selectively inhibits growth” each time. In addition, the “effect of xyloside with DFMO and spermine-NONOate” value in data set [10], in [12] and in [15] was “Synergistic cytotoxic effects” each time. Besides, the “effect on cell growth” value is given as “marginally affected” in [5] (0.2 mM xyloside alone, FIG. 2); “insufficient” in data set [5] (0.2 mM xyloside and 5 mM DFMO with 2.5 5 μM spermineNONOate); “complete cell death” in data set [5] (0.2 mM xyloside combined with 5 mM DFMO and 5 μM spermineNONOate, FIG. 2); “completely growth-arrested” in data set [5] (0.5 mM xyloside alone, FIG. 2). For the same compound, the “cytotoxic effect on T24 cells” value in data set [5] is listed as “marginally cytotoxic”. Also, the “subcutaneous C6 glioma tumor weight reduced” value in data set [3] (SCID mice, daily contralateral s.c. injections of 1.7 mM solution, 0.5 ml, 2 weeks, FIG. 6A) was 78%. Moreover, the tumor-load reduced in data set [3] (mice treated with xyloside plus DFMO 0.1% w/v via the drinking water, FIG. 6C) was found to be 83%. Also, the blood-brain barrier penetration result in data set [13] (inferred from reduced intracerebral tumor volume in rats) was “can penetrate the blood-brain barrier”. In data set [13] (rats, intracerebral C6 glioma, daily s.c. injections of 1.7 mM solution, 5 ml, 2 weeks, FIG. 6B), the tumor volume result is on record as “reduced”. In data set [6] (0.2 mM xyloside, 5 mM DFMO and 5 μM spermineNONOate, FIG. 3), the “reduction of cell growth” value is listed as 20%.
